# Measurements published in US20100266504A1, “CONDENSED PYRIDINE DERIVATIVE AND USE THEREOF” (priority 2007, published 2010).
# Structures can show the parent of a compound that is named as a salt. Where two headings read alike, the source gives them in different places.
# Experiments:
# [1] = biological target: serotonin 5-HT2C receptor (isoform type VSV, stably expressing CHO cell) (Homo sapiens, UniProt P28335, I156V/I160V/N158S); assay: cell-based; conditions: for Emax: CHO, read-out: ratio relative to maximum response by 5-HT (1 μM); for ratio relative to maximum response by 5-HT (1 μM): hydrochloride
# Chain of serotonin 5-HT2C receptor (isoform type VSV, stably expressing CHO cell) (P28335 33-458 I156V/N158S/I160V limits assumed): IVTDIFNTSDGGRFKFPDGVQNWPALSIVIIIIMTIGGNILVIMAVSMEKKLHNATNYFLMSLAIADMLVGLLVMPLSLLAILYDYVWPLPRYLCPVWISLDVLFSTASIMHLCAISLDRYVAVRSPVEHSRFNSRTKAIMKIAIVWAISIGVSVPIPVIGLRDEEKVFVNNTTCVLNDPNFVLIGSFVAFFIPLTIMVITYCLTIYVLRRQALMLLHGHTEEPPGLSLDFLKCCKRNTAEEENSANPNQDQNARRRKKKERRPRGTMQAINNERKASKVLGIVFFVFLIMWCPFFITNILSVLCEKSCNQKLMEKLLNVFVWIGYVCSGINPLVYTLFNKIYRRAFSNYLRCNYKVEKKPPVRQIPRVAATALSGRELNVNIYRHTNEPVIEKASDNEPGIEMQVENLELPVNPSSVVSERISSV
# [2] = tested on: spinal cord transected female rats whose hypogastric nerve and pudendal nerves were bilaterally cut; assay: urethral closure response induced by increased intravesical pressure (Experimental Example 5); conditions: for urethral closure response (cmH2O) after drug administration: i.v., 10 min after administration; for urethral closure response (cmH2O) after drug administration / urethral closure response (cmH2O) before drug administration: mean ± SEM, n=5; for urethral closure response (cmH2O) before drug administration: i.v. group; for effect on urethral closure response induced by increased intravesical pressure (in words): intravenous administration
# Procedure: Female SD rats (body weight 200-310 g) were anesthetized with urethane (Wako Pure Chemical Industries, Ltd.), and the spinal cord was transected at T8-9 level to eliminate the micturition reflex. During the operation, halothane (Takeda Pharmaceutical Company Limited) anesthesia was added when necessary. After abdominal section, bladder neck was ligated with a suture thread, and then the hypogastric nerve and pudendal nerve were bilaterally transected. A catheter (PE-90, Clay Adams) was placed in the bladder, and the other end of the bladder catheter was connected to a pressure transducer and a water reservoir (60 ml syringe) of saline via a three-way cock. A microtip transducer catheter (SPR-524, Millar Instruments Inc.) was inserted toward the bladder from the urethral orifice, and adjusted using a scale on the catheter surface so that the transducer part is positioned in the urethra at 10.0-15.0 mm from the urethral orifice.
# The changes in the topical pressure within the urinary tract (hereinafter conveniently indicated as urethral pressure) as measured by the microtip transducer was transmitted to a computer via an amplifier (blood pressure amplification unit AP-641G; NIHON KOHDEN) and a data analyzer (MP-100; biopack; sampled at 500 Hz), and recorded on a hard disc. […] The reaction of the urinary tract induced by an increased intravesical pressure was measured 3 times, and the average of the last 2 measures was taken as the value before drug administration. The evaluation item was reflex urethral closure response, and the recorded values were subjected to smoothing process at 500 points to calculate an average urethral pressure per 1 sec, after which the value immediately before increase in the intravesical pressure was subtracted from the maximum value on increase in the intravesical pressure and taken as the urethral closure response. […] The drugs were all dissolved in N,N-dimethylformamide/polyethylene glycol 400 (1:1) and administered intravenously at a volume of 0.5 ml/kg.
# [3] = tested on: spinal cord-transected female rats under urethane anesthesia; assay: leak point pressure by high speed infusion method, serotonin 5-HT2C receptor agonists (Experimental Example 3); conditions: for change of leak point pressure (cmH2O): i.v., mean ± SEM; for effect on leak point pressure (in words): intravenous administration
# Procedure: SD female rats (body weight 180-350 g) were anesthetized with urethane (Wako Pure Chemical Industries, Ltd.), and the spinal cord was cut at T8-9 level to eliminate the micturition reflex. During the operation, halothane (Takeda Pharmaceutical Company Limited) anesthesia was added as necessary. The rats were fixed at a dorsal position, and two catheters (PE-100; Clay Adams) were indwelled in the bladder. One of the catheters was filled with saline stained with Evans Blue dye (Merck), and connected to a 50 ml syringe (TERUMO CORPORATION) fixed on an infusion pump (KD Scientific) via a three-way cock. The other catheter was connected to a pressure transducer (DX-100; NIHON KOHDEN CORPORATION), and signals of the transducer were transmitted to computer via an amplifier (blood pressure amplification unit AP-641G; NIHON KOHDEN CORPORATION) and a data analyzer (BIOPAC; MP100), and recorded on a hard disk. The data was analyzed on the computer using a software (BIOPAC; AcqKnowledge). Saline was injected into the bladder using the infusion pump at a rate of 360 ml/hr, infusion was stopped on the moment fluid leakage from the urethral meatus was observed, and the solution in the bladder was discharged by opening the three-way cock. The maximum intravesical pressure during infusion was taken as a leak point pressure, which was measured repeatedly until the value was stabilized, and the average value of the last three measures was taken as the data. […] All the drugs were dissolved in DMA/PEG400 (1:1) and intravenously administered at 0.5 ml/kg.
# [4] = tested on: spinal cord-transected female rats under urethane anesthesia; conditions: before vs after administration
# Procedure: SD female rats (body weight 180-350 g) were anesthetized with urethane (Wako Pure Chemical Industries, Ltd.), and the spinal cord was cut at T8-9 level to eliminate the micturition reflex. During the operation, halothane (Takeda Pharmaceutical Company Limited) anesthesia was added as necessary. The rats were fixed at a dorsal position, and two catheters (PE-100; Clay Adams) were indwelled in the bladder. One of the catheters was filled with saline stained with Evans Blue dye (Merck), and connected to a 50 ml syringe (TERUMO CORPORATION) fixed on an infusion pump (KD Scientific) via a three-way cock. The other catheter was connected to a pressure transducer (DX-100; NIHON KOHDEN CORPORATION), and signals of the transducer were transmitted to computer via an amplifier (blood pressure amplification unit AP-641G; NIHON KOHDEN CORPORATION) and a data analyzer (BIOPAC; MP100), and recorded on a hard disk. The data was analyzed on the computer using a software (BIOPAC; AcqKnowledge). Saline was injected into the bladder using the infusion pump at a rate of 360 ml/hr, infusion was stopped on the moment fluid leakage from the urethral meatus was observed, and the solution in the bladder was discharged by opening the three-way cock. The maximum intravesical pressure during infusion was taken as a leak point pressure.
structure (smiles),measurement,setting,value
"CC1CNCc2ccc(N3CCOCC3)nc21 (single isomer, unassigned) [Example 73, (8R*)-8-Methyl-2-morpholin-4-yl-5,6,7,8-tetrahydro-1,6-naphthyridine hydrochloride]",Emax,[1],101%
"CC1CNCc2ccc(N3CCOCC3)nc21 (single isomer, unassigned) [Example 74, (8S*)-8-Methyl-2-morpholin-4-yl-5,6,7,8-tetrahydro-1,6-naphthyridine hydrochloride]",ratio relative to maximum response by 5-HT (1 μM),[1],103
"CC1CNCc2ccc(N(C)C(C)C)nc21 (single isomer, unassigned) [Example 79, (8R*)-N-Isopropyl-N,8-dimethyl-5,6,7,8-tetrahydro-1,6-naphthyridin-2-amine hydrochloride]",Emax,[1],106%
"CC1CNCc2ccc(N(C)C(C)C)nc21 (single isomer, unassigned) [Example 80, (8S*)-N-Isopropyl-N,8-dimethyl-5,6,7,8-tetrahydro-1,6-naphthyridin-2-amine hydrochloride]",ratio relative to maximum response by 5-HT (1 μM),[1],102
"CC1CNCc2ccc(N3CCOC[C@H]3C)nc21 (stereo in doubt) [Example 75, (8R*)-8-Methyl-2-[(3R)-3-methylmorpholin-4-yl]-5,6,7,8-tetrahydro-1,6-naphthyridine hydrochloride]",Emax,[1],103%
"CC1CNCc2ccc(N3CCOC[C@H]3C)nc21 (stereo in doubt) [Example 76, (8S*)-8-Methyl-2-[(3R)-3-methylmorpholin-4-yl]-5,6,7,8-tetrahydro-1,6-naphthyridine hydrochloride]",ratio relative to maximum response by 5-HT (1 μM),[1],105
C[C@H]1CNCCc2ccc(Cl)cc21 [APD-356],urethral closure response (cmH2O) after drug administration,[2]; 1 mg/kg,8.6 ± 2.7 cmH2O
same,urethral closure response (cmH2O) before drug administration,[2]; baseline of the 1 mg/kg,5.3 ± 1.7 cmH2O
same,effect on urethral closure response induced by increased intravesical pressure (in words),[2],enhanced the urethral closure response
same,change of leak point pressure (cmH2O),[3]; 0.1 mg/kg,5.2 ± 2.6 cmH2O
same,change of leak point pressure (cmH2O),[3]; 1 mg/kg,19.2 ± 3.1 cmH2O
same,change of leak point pressure (cmH2O),[3]; 3 mg/kg,28.9 ± 3.3 cmH2O
same,effect on leak point pressure (in words),[3],increased the leak point pressure in a dose-dependent manner
"CC1CCNCc2ccc(N3CCOCC3)nc21 (centres unmarked) [Example 2, 9-Methyl-2-morpholin-4-yl-6,7,8,9-tetrahydro-5H-pyrido[3,2-c]azepine hydrochloride]",Emax,[1],92.8%
"CC1CNCc2ccc(-c3ccc(F)cc3)nc21 (centres unmarked) [Example 4, 2-(4-Fluorophenyl)-8-methyl-5,6,7,8-tetrahydro-1,6-naphthyridine hydrochloride]",Emax,[1],101%
"CC1CNCc2ccc(N3CCOCC3)nc21 (centres unmarked) [Example 5, 8-Methyl-2-morpholin-4-yl-5,6,7,8-tetrahydro-1,6-naphthyridine dihydrochloride]",Emax,[1],101%
"c1cc2c(nc1N1CCOCC1)CCNC2 [Example 6, 2-Morpholin-4-yl-5,6,7,8-tetrahydro-1,6-naphthyridine]",Emax,[1],100%
"C[C@@H]1COCCN1c1ccc2c(n1)CCNC2 [Example 7, 2-[(3R)-3-Methylmorpholin-4-yl]-5,6,7,8-tetrahydro-1,6-naphthyridine hydrochloride]",Emax,[1],95.6%
"C[C@H]1COCCN1c1ccc2c(n1)CCNC2 [Example 8, 2-[(3S)-3-Methylmorpholin-4-yl]-5,6,7,8-tetrahydro-1,6-naphthyridine hydrochloride]",Emax,[1],90.8%
"CCN(C)c1ccc2c(n1)CCNC2 [Example 15, N-Ethyl-N-methyl-5,6,7,8-tetrahydro-1,6-naphthyridin-2-amine hydrochloride]",Emax,[1],102%
"CC(C)N(C)c1ccc2c(n1)CCNC2 [Example 17, N-Isopropyl-N-methyl-5,6,7,8-tetrahydro-1,6-naphthyridin-2-amine hydrochloride]",Emax,[1],100%
"CC(C)c1ccc2c(n1)CCNC2 [Example 24, 2-Isopropyl-5,6,7,8-tetrahydro-1,6-naphthyridine hydrochloride]",Emax,[1],101%
"c1cc(-c2ccc3c(n2)CCNC3)co1 [Example 26, 2-(3-Furyl)-5,6,7,8-tetrahydro-1,6-naphthyridine dihydrochloride]",Emax,[1],98.2%
"Fc1ccc(-c2ccc3c(n2)CCNC3)cc1 [Example 27, 2-(4-Fluorophenyl)-5,6,7,8-tetrahydro-1,6-naphthyridine dihydrochloride]",Emax,[1],91.7%
"CSc1ccc(-c2ccc3c(n2)CCNC3)cc1 [Example 28, 2-[4-(Methylthio)phenyl]-5,6,7,8-tetrahydro-1,6-naphthyridine dihydrochloride]",Emax,[1],102%
"FC(F)(F)c1ccc(-c2ccc3c(n2)CCNC3)cc1 [Example 29, 2-[4-(Trifluoromethyl)phenyl]-5,6,7,8-tetrahydro-1,6-naphthyridine dihydrochloride]",Emax,[1],97%
"CC(C)Oc1ccc2c(n1)CCNC2 [Example 30, 2-Isopropoxy-5,6,7,8-tetrahydro-1,6-naphthyridine hydrochloride]",Emax,[1],97.8%
"CC(Oc1ccc2c(n1)CCNC2)C1CC1 (centres unmarked) [Example 31, 2-(1-Cyclopropylethoxy)-5,6,7,8-tetrahydro-1,6-naphthyridine hydrochloride]",Emax,[1],88.4%
"c1cc2c(nc1C1CC1)CCNC2 [Example 43, 2-Cyclopropyl-5,6,7,8-tetrahydro-1,6-naphthyridine hydrochloride]",Emax,[1],97%
"CC1CNCc2ccc(N3CCOC[C@H]3C)nc21 (stereo partly drawn) [Example 48, 8-Methyl-2-[(3R)-3-methylmorpholin-4-yl]-5,6,7,8-tetrahydro-1,6-naphthyridine hydrochloride]",Emax,[1],95.5%
"CC1CNCc2ccc(N(C)C(C)C)nc21 (centres unmarked) [Example 53, N-Isopropyl-N,8-dimethyl-5,6,7,8-tetrahydro-1,6-naphthyridin-2-amine hydrochloride]",Emax,[1],91%
O=C1Nc2cc(Cl)c(Cl)cc2N2CCNCC12 (centres unmarked) [WAY-161503],change of leak point pressure (cmH2O),[3]; 0.03 mg/kg,7.4 ± 3.8 cmH2O
same,change of leak point pressure (cmH2O),[3]; 0.3 mg/kg,12.8 ± 1.0 cmH2O
same,effect on leak point pressure (in words),[3],increased the leak point pressure in a dose-dependent manner
c1cc2c3c(c1)[C@H]1CCC[C@H]1N3CCNC2 [WAY-163909],urethral closure response (cmH2O) after drug administration,[2]; 3 mg/kg,10.2 ± 1.6 cmH2O
same,urethral closure response (cmH2O) before drug administration,[2]; baseline of the 3 mg/kg,4.4 ± 0.8 cmH2O
same,effect on urethral closure response induced by increased intravesical pressure (in words),[2],enhanced the urethral closure response
same,change of leak point pressure (cmH2O),[3]; 0.1 mg/kg,4.4 ± 1.6 cmH2O
same,change of leak point pressure (cmH2O),[3]; 1 mg/kg,12.9 ± 4.2 cmH2O
same,change of leak point pressure (cmH2O),[3]; 3 mg/kg,30.1 ± 2.6 cmH2O
same,effect on leak point pressure (in words),[3],increased the leak point pressure in a dose-dependent manner
"c1cc2c(nc1N1CCOCC1)OCCNC2 [compound A, 8-morpholin-4-yl-2,3,4,5-tetrahydropyrido[3,2-f][1,4]oxazepine]",urethral closure response (cmH2O) after drug administration,[2]; 1 mg/kg,7.5 ± 1.6 cmH2O
same,urethral closure response (cmH2O) before drug administration,[2]; baseline of the 1 mg/kg,4.6 ± 0.8 cmH2O
same,effect on urethral closure response induced by increased intravesical pressure (in words),[2],enhanced the urethral closure response
same,change of leak point pressure (cmH2O),[3]; 0.1 mg/kg,8.4 ± 5.0 cmH2O
same,change of leak point pressure (cmH2O),[3]; 1 mg/kg,10.3 ± 2.4 cmH2O
same,change of leak point pressure (cmH2O),[3]; 3 mg/kg,25.7 ± 8.7 cmH2O
same,effect on leak point pressure (in words),[3],increased the leak point pressure in a dose-dependent manner
CNCC[C@H](Oc1cccc2ccccc12)c1cccs1 [duloxetine],change of leak point pressure (cmH2O),"[4]; 1 mg/kg, i.v., mean ± SEM, n=5",11.4 ± 2.4 cmH2O
same,effect on leak point pressure (in words),[4]; intravenous administration,significantly increased the leak point pressure
